Experimental data: US9409905B2, “Antibacterial compounds and methods for use” (PTC THERAPEUTICS, INC., priority 2011, dated 2016)
Values after ≈ are worked out from the molar mass of the structure shown.

Assays:
[1] = test system: Pseudomonas aeruginosa (P. aeruginosa) 27853; assay: Antibacterial activity, MIC (Table 5); type: cell-based; conditions: P. aeruginosa 27853, read-out: MIC, 27853
Outline: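 Values are MICs in μg/mL, read as the lowest concentration at which no growth is visible by eye. They were determined by a microbroth dilution method.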

[2] = test system: Haemophilus influenzae (H. influenzae) 49247; assay: Antibacterial activity, MIC (Table 6); type: cell-based
Outline: (§1)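 Values are minimum inhibitory concentrations in μg/mL, read as the lowest compound concentration at which no growth is visible to the eye. Testing used a microbroth dilution format.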

[3] = test system: Acinetobacter baumannii (A. baumannii) BAA747; assay: Antibacterial activity, MIC (Table 4); type: cell-based; conditions: A. baumannii BAA747, read-out: MIC, BAA747
Outline: (§2)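 Values are MICs in μg/mL, read as the lowest compound concentration at which no growth is visible by eye. They come from a microbroth dilution method.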

[4] = test system: Klebsiella pneumoniae (K. pneumoniae) 35657; assay: Antibacterial activity, MIC (Table 4); type: cell-based; conditions: K. pneumoniae 35657, read-out: MIC, 35657
Outline: as §2

E. coli 25922 = assay: Antibacterial activity, microbroth dilution MIC (Table 1); type: cell-based, Escherichia coli; conditions: Escherichia coli; microbroth dilution; control Gram-negative E. coli 25922 strain; read-out: MIC, 25922
Outline: (§3)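 Growth inhibition by microbroth dilution. MIC = lowest μg/mL with no visible growth. Strain 25922 is the control Gram-negative; BAS849 is hypersensitive.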

E. coli LZ3111 = assay: Antibacterial activity, MIC, quinolone resistant strain (Table 2); type: cell-based; conditions: Escherichia coli, LZ3111, read-out: MIC LZ3111
Outline: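 MIC values (μg/mL) came from a microbroth dilution assay, scored as the lowest drug concentration at which no growth was visible by eye.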

[5] = test system: Neisseria meningitidis (N. meningitidis) 13090; assay: Antibacterial activity, MIC (Table 8); type: cell-based
Outline: as §1

E. coli ELZ4251 = assay: Antibacterial activity, MIC, multi-drug resistant clinical isolate (Table 3); type: cell-based; conditions: Escherichia coli
Outline: (§4)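 Compounds were serially diluted in broth microdilution format and growth was scored visually; the MIC is the lowest concentration at which no macroscopically visible growth occurred, expressed in μg/mL.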

E. coli ELZ4000 = assay: as above; type: cell-based; conditions: Escherichia coli, ELZ4000, read-out: MIC ELZ4000
Outline: as §4

[6] = test system: Staphylococcus aureus (S. aureus) 29213; assay: Antibacterial activity, microbroth dilution MIC (Table 1); type: cell-based; conditions: microbroth dilution, Gram-positive S. aureus 29213, read-out: MIC, 29213
Outline: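 Broth microdilution; endpoint = no macroscopic growth; value = lowest inhibiting concn, μg/mL.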

[7] = test system: Escherichia coli (E. coli) BAS849; assay: as above; type: cell-based; conditions: microbroth dilution, super sensitive Gram-negative E. coli BAS849, read-out: MIC, BAS849
Outline: as §3

[8] = test system: Moraxella catarrhalis (M. catarrhalis) 25238; assay: Antibacterial activity, MIC (Table 7); type: cell-based
Description: The antibacterial activity from a microbroth dilution method may be presented as the minimum inhibitory concentration (MIC in μg/mL). The MIC value is the lowest concentration of drug which prevents macroscopically visible growth under test conditions.
Antibacterial activity of test compounds against the Gram-negative bacteria Haemophilus influenzae (H. influenzae) 49247 is shown in Table 6, Moraxella catarrhalis (M. catarrhalis) 25238 is shown in Table 7 and Neisseria meningitidis (N. meningitidis) 13090 is shown in Table 8.

A. baumannii MXX2240 = assay: Antibacterial activity, MIC, resistant strain (Table 4); type: cell-based; conditions: Acinetobacter baumannii, MXX2240; resistant A. baumannii MMX2240, multi-drug resistant clinical isolate; read-out: MIC, MMX2240
Outline: as §2

K. pneumoniae MXX1232 = assay: as above; type: cell-based; conditions: Klebsiella pneumoniae, MXX1232; resistant K. pneumoniae MMX1232, multi-drug resistant clinical isolate; read-out: MIC, MMX1232
Outline: as §2

SMILES	MIC [1]	MIC [2]	MIC [3]	MIC [4]	MIC (E. coli 25922)	MIC (E. coli LZ3111)	MIC [5]	MIC (E. coli ELZ4251)	MIC (E. coli ELZ4000)	MIC [6]	MIC [7]	MIC [8]	MIC (A. baumannii MXX2240)	MIC (K. pneumoniae MXX1232)
CCc1c(-c2ccc3c(c2)cc(CNC(C)C)n3C)[nH]c(=O)c(C(=O)O)c1O [Cpd 199, 5-ethyl-4-hydroxy-6-(2-((isopropylamino)methyl)-1-methyl-1H-indol-5-yl)-2-oxo-1,2-dihydropyridine-3-carboxylic acid]	3.5 to 12.5 µg/mL (≈ 9.13 to 32.6 µM)	< 1 µg/mL	< 1 µg/mL	< 1 µg/mL	< 1 µg/mL	1 to 3.5 µg/mL (≈ 2.61 to 9.13 µM)	< 1 µg/mL	3.5 to 12.5 µg/mL (≈ 9.13 to 32.6 µM)	3.5 to 12.5 µg/mL (≈ 9.13 to 32.6 µM)	3.5 to 12.5 µg/mL (≈ 9.13 to 32.6 µM)	< 1 µg/mL	< 1 µg/mL	1 to 3.5 µg/mL (≈ 2.61 to 9.13 µM)	12.5 to 150 µg/mL (≈ 32.6 to 391 µM)
CCc1c(-c2ccc3c(c2)cc(CN2CCC(N(C)C)C2)n3C)[nH]c(=O)c(C(=O)O)c1O (stereo not drawn) [Cpd 200, 6-(2-((3-(dimethylamino)pyrrolidin-1-yl)methyl)-1-methyl-1H-indol-5-yl)-5-ethyl-4-hydroxy-2-oxo-1,2-dihydropyridine-3-carboxylic acid]	12.5 to 150 µg/mL (≈ 28.5 to 342 µM)	1 to 3.5 µg/mL (≈ 2.28 to 7.98 µM)	3.5 to 12.5 µg/mL (≈ 7.98 to 28.5 µM)	12.5 to 150 µg/mL (≈ 28.5 to 342 µM)	1 to 3.5 µg/mL (≈ 2.28 to 7.98 µM)	1 to 3.5 µg/mL (≈ 2.28 to 7.98 µM)	< 1 µg/mL	12.5 to 150 µg/mL (≈ 28.5 to 342 µM)	12.5 to 150 µg/mL (≈ 28.5 to 342 µM)	3.5 to 12.5 µg/mL (≈ 7.98 to 28.5 µM)	< 1 µg/mL	1 to 3.5 µg/mL (≈ 2.28 to 7.98 µM)	12.5 to 150 µg/mL (≈ 28.5 to 342 µM)	12.5 to 150 µg/mL (≈ 28.5 to 342 µM)
CCc1c(-c2ccc3c(c2)cc(CNCCF)n3C)[nH]c(=O)c(C(=O)O)c1O [Cpd 201, 5-ethyl-6-(2-((2-fluoroethylamino)methyl)-1-methyl-1H-indol-5-yl)-4-hydroxy-2-oxo-1,2-dihydropyridine-3-carboxylic acid]	3.5 to 12.5 µg/mL (≈ 9.03 to 32.3 µM)	< 1 µg/mL	< 1 µg/mL	< 1 µg/mL	< 1 µg/mL	1 to 3.5 µg/mL (≈ 2.58 to 9.03 µM)	< 1 µg/mL	3.5 to 12.5 µg/mL (≈ 9.03 to 32.3 µM)	3.5 to 12.5 µg/mL (≈ 9.03 to 32.3 µM)	3.5 to 12.5 µg/mL (≈ 9.03 to 32.3 µM)	< 1 µg/mL	< 1 µg/mL	3.5 to 12.5 µg/mL (≈ 9.03 to 32.3 µM)	12.5 to 150 µg/mL (≈ 32.3 to 387 µM)
CCc1c(-c2ccc3c(c2)cc(CN(C)C2CCC2)n3C)[nH]c(=O)c(C(=O)O)c1O.Cl [Cpd 209, 6-(2-((cyclobutyl(methyl)amino)methyl)-1-methyl-1H-indol-5-yl)-5-ethyl-4-hydroxy-2-oxo-1,2-dihydropyridine-3-carboxylic acid hydrochloride]	12.5 to 150 µg/mL	< 1 µg/mL	1 to 3.5 µg/mL	1 to 3.5 µg/mL	< 1 µg/mL	3.5 to 12.5 µg/mL	< 1 µg/mL	12.5 to 150 µg/mL	12.5 to 150 µg/mL	3.5 to 12.5 µg/mL	< 1 µg/mL	< 1 µg/mL	3.5 to 12.5 µg/mL	12.5 to 150 µg/mL
CCc1c(-c2ccc3c(c2)cc(CN(C)CC2CC2)n3C)[nH]c(=O)c(C(=O)O)c1O.Cl [Cpd 210, 6-(2-(((cyclopropylmethyl)(methyl)amino)methyl)-1-methyl-1H-indol-5-yl)-5-ethyl-4-hydroxy-2-oxo-1,2-dihydropyridine-3-carboxylic acid hydrochloride]	12.5 to 150 µg/mL	1 to 3.5 µg/mL	1 to 3.5 µg/mL	3.5 to 12.5 µg/mL	< 1 µg/mL	3.5 to 12.5 µg/mL	< 1 µg/mL	3.5 to 12.5 µg/mL	12.5 to 150 µg/mL	3.5 to 12.5 µg/mL	< 1 µg/mL	< 1 µg/mL	12.5 to 150 µg/mL	12.5 to 150 µg/mL
CCc1c(-c2ccc3c(c2)cc(CNCC2CC2)n3C)[nH]c(=O)c(C(=O)O)c1O.Cl [Cpd 223, 6-(2-((cyclopropylmethylamino)methyl)-1-methyl-1H-indol-5-yl)-5-ethyl-4-hydroxy-2-oxo-1,2-dihydropyridine-3-carboxylic acid hydrochloride]	3.5 to 12.5 µg/mL	< 1 µg/mL	< 1 µg/mL	3.5 to 12.5 µg/mL	< 1 µg/mL	1 to 3.5 µg/mL	< 1 µg/mL	12.5 to 150 µg/mL	3.5 to 12.5 µg/mL	3.5 to 12.5 µg/mL	< 1 µg/mL	< 1 µg/mL	1 to 3.5 µg/mL	12.5 to 150 µg/mL
CCc1c(-c2ccc3c(c2)cc(CNC2CC2)n3C)[nH]c(=O)c(C(=O)O)c1O.Cl [Cpd 228, 6-(2-((cyclopropylamino)methyl)-1-methyl-1H-indol-5-yl)-5-ethyl-4-hydroxy-2-oxo-1,2-dihydropyridine-3-carboxylic acid hydrochloride]	3.5 to 12.5 µg/mL	< 1 µg/mL	< 1 µg/mL	1 to 3.5 µg/mL	< 1 µg/mL	1 to 3.5 µg/mL	< 1 µg/mL	1 to 3.5 µg/mL	3.5 to 12.5 µg/mL	3.5 to 12.5 µg/mL	< 1 µg/mL	< 1 µg/mL	1 to 3.5 µg/mL	12.5 to 150 µg/mL
CCc1c(-c2ccc3c(c2)cc(CNC2CCCC2)n3C)[nH]c(=O)c(C(=O)O)c1O.Cl [Cpd 229, 6-(2-((cyclopentylamino)methyl)-1-methyl-1H-indol-5-yl)-5-ethyl-4-hydroxy-2-oxo-1,2-dihydropyridine-3-carboxylic acid hydrochloride]	3.5 to 12.5 µg/mL	< 1 µg/mL	< 1 µg/mL	< 1 µg/mL	< 1 µg/mL	3.5 to 12.5 µg/mL	< 1 µg/mL	3.5 to 12.5 µg/mL	12.5 to 150 µg/mL	3.5 to 12.5 µg/mL	< 1 µg/mL	< 1 µg/mL	1 to 3.5 µg/mL	12.5 to 150 µg/mL
CCc1c(-c2ccc3c(c2)cc(CNCC2CCCN2CC)n3C)[nH]c(=O)c(C(=O)O)c1O.Cl.Cl (stereo not drawn) [Cpd 230, 5-ethyl-6-(2-(((1-ethylpyrrolidin-2-yl)methylamino)methyl)-1-methyl-1H-indol-5-yl)-4-hydroxy-2-oxo-1,2-dihydropyridine-3-carboxylic acid dihydrochloride]	12.5 to 150 µg/mL	3.5 to 12.5 µg/mL	12.5 to 150 µg/mL	1 to 3.5 µg/mL	3.5 to 12.5 µg/mL	3.5 to 12.5 µg/mL	1 to 3.5 µg/mL	12.5 to 150 µg/mL	12.5 to 150 µg/mL	12.5 to 150 µg/mL	< 1 µg/mL	3.5 to 12.5 µg/mL	12.5 to 150 µg/mL	12.5 to 150 µg/mL
CCc1c(-c2ccc3c(c2)cc(CNCC2CCCN(C)C2)n3C)[nH]c(=O)c(C(=O)O)c1O.Cl.Cl (stereo not drawn) [Cpd 231, 5-ethyl-4-hydroxy-6-(1-methyl-2-(((1-methylpiperidin-3-yl)methylamino)methyl)-1H-indol-5-yl)-2-oxo-1,2-dihydropyridine-3-carboxylic acid dihydrochloride]	12.5 to 150 µg/mL	1 to 3.5 µg/mL	3.5 to 12.5 µg/mL	1 to 3.5 µg/mL	1 to 3.5 µg/mL	1 to 3.5 µg/mL	1 to 3.5 µg/mL	12.5 to 150 µg/mL	12.5 to 150 µg/mL	12.5 to 150 µg/mL	< 1 µg/mL	3.5 to 12.5 µg/mL	12.5 to 150 µg/mL	12.5 to 150 µg/mL
CCc1c(-c2ccc3c(c2)cc(CNC2CCC2)n3C)[nH]c(=O)c(C(=O)O)c1O.Cl [Cpd 232, 6-(2-((cyclobutylamino)methyl)-1-methyl-1H-indol-5-yl)-5-ethyl-4-hydroxy-2-oxo-1,2-dihydropyridine-3-carboxylic acid hydrochloride]	3.5 to 12.5 µg/mL	< 1 µg/mL	< 1 µg/mL	1 to 3.5 µg/mL	< 1 µg/mL	1 to 3.5 µg/mL	< 1 µg/mL	3.5 to 12.5 µg/mL	3.5 to 12.5 µg/mL	3.5 to 12.5 µg/mL	< 1 µg/mL	< 1 µg/mL	1 to 3.5 µg/mL	12.5 to 150 µg/mL
CCc1c(-c2ccc3c(c2)cc(CNCC2CCCCN2C)n3C)[nH]c(=O)c(C(=O)O)c1O.Cl.Cl (stereo not drawn) [Cpd 233, 5-ethyl-4-hydroxy-6-(1-methyl-2-((((1-methylpiperidin-2-yl)methyl)amino)methyl)-1H-indol-5-yl)-2-oxo-1,2-dihydropyridine-3-carboxylic acid dihydrochloride]	12.5 to 150 µg/mL	3.5 to 12.5 µg/mL	12.5 to 150 µg/mL	1 to 3.5 µg/mL	1 to 3.5 µg/mL	1 to 3.5 µg/mL	1 to 3.5 µg/mL	12.5 to 150 µg/mL	12.5 to 150 µg/mL	12.5 to 150 µg/mL	< 1 µg/mL	3.5 to 12.5 µg/mL	12.5 to 150 µg/mL	12.5 to 150 µg/mL
